Assay results: the supplement of paper PMC10307832

Columns and labels:
Assay in all cases: relative viability (nuclei count vs DMSO), 5 days (fraction); higher = more cells survive
Trametinib + Vorinostat = compound: CC(=O)Nc1cccc(-n2c(=O)n(C3CC3)c(=O)c3c(Nc4ccc(I)cc4F)n(C)c(=O)c(C)c32)c1 [Trametinib] + O=C(CCCCCCC(=O)Nc1ccccc1)NO [Vorinostat] (partner 1 µM)
How it was run: (§1)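 Nuclei were stained with Hoechst during a one-step fixation (final 0.05% Triton X-100, 1% formaldehyde, 1 ug/ml Hoechst) carried out 5 days after dosing, then counted on 4× images. The cells, lung cancer lines in 1536-well plates, had been dosed by pin tool the day after seeding with one drug alone or a fixed anchor-drug dose plus five library-drug doses (not always all listed) in √10 steps. Relative viability is the nuclei count in treated wells divided by that in vehicle wells, and each value is the median of duplicate plates.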

Trametinib + Palbociclib = compound: CC(=O)Nc1cccc(-n2c(=O)n(C3CC3)c(=O)c3c(Nc4ccc(I)cc4F)n(C)c(=O)c(C)c32)c1 [Trametinib] + CC(=O)c1c(C)c2cnc(Nc3ccc(N4CCNCC4)cn3)nc2n(C2CCCC2)c1=O [Palbociclib] (partner 0.5 µM)
How it was run: as §1

Trametinib + Dasatinib = compound: CC(=O)Nc1cccc(-n2c(=O)n(C3CC3)c(=O)c3c(Nc4ccc(I)cc4F)n(C)c(=O)c(C)c32)c1 [Trametinib] + Cc1nc(Nc2ncc(C(=O)Nc3c(C)cccc3Cl)s2)cc(N2CCN(CCO)CC2)n1 [Dasatinib] (partner 0.075 µM)
How it was run: as §1

Trametinib + Decitabine = compound: CC(=O)Nc1cccc(-n2c(=O)n(C3CC3)c(=O)c3c(Nc4ccc(I)cc4F)n(C)c(=O)c(C)c32)c1 [Trametinib] + Nc1ncn([C@H]2C[C@H](O)[C@@H](CO)O2)c(=O)n1 [Decitabine] (partner 2 µM)
How it was run: as §1

| Cell Line | relative viability (Trametinib + Vorinostat; first compound 0.0025 µM) | relative viability (Trametinib + Vorinostat; first compound 0.007906 µM) | relative viability (Trametinib + Vorinostat; first compound 0.025 µM) | relative viability (Trametinib + Vorinostat; first compound 0.07906 µM) | relative viability (Trametinib + Vorinostat; first compound 0.25 µM) | relative viability (Trametinib + Palbociclib; first compound 0.0025 µM) | relative viability (Trametinib + Palbociclib; first compound 0.007906 µM) | relative viability (Trametinib + Palbociclib; first compound 0.025 µM) | relative viability (Trametinib + Palbociclib; first compound 0.07906 µM) | relative viability (Trametinib + Palbociclib; first compound 0.25 µM) | relative viability (Trametinib + Dasatinib; first compound 0.0025 µM) | relative viability (Trametinib + Dasatinib; first compound 0.007906 µM) | relative viability (Trametinib + Dasatinib; first compound 0.025 µM) | relative viability (Trametinib + Dasatinib; first compound 0.07906 µM) | relative viability (Trametinib + Dasatinib; first compound 0.25 µM) | relative viability (Trametinib + Decitabine; first compound 0.0025 µM) | relative viability (Trametinib + Decitabine; first compound 0.007906 µM) | relative viability (Trametinib + Decitabine; first compound 0.025 µM) | relative viability (Trametinib + Decitabine; first compound 0.07906 µM) | relative viability (Trametinib + Decitabine; first compound 0.25 µM) |
| --- | --- | --- | --- | --- | --- | --- | --- | --- | --- | --- | --- | --- | --- | --- | --- | --- | --- | --- | --- | --- |
| NCI-H2126 | 0.701 | 0.514 | 0.353 | 0.6 | 0.446 | 0.331 | 0.346 | 0.33 | 0.304 | 0.349 | 0.452 | 0.44 | 0.395 | 0.412 | 0.445 | 0.574 | 0.558 | 0.514 | 0.535 | 0.523 |
| NCI-H2170 | 0.821 | 0.723 | – | 0.73 | 0.803 | 0.4 | 0.419 | – | 0.399 | 0.342 | 0.56 | 0.476 | 0.37 | 0.347 | 0.416 | 0.491 | 0.451 | – | 0.435 | 0.425 |
| NCI-H2342 | 0.727 | 0.793 | 0.488 | 0.685 | 0.68 | 0.48 | 0.511 | 0.425 | 0.446 | 0.477 | 0.298 | 0.28 | – | 0.3 | 0.303 | 0.775 | 0.69 | 0.646 | 0.673 | 0.637 |
| NCI-H2347 | 0.467 | 0.358 | 0.289 | 0.329 | 0.358 | 0.372 | 0.363 | 0.324 | 0.316 | 0.291 | 0.234 | 0.16 | 0.162 | 0.172 | 0.149 | 0.521 | 0.514 | 0.395 | 0.358 | 0.397 |
| NCI-H2405 | 0.985 | 0.853 | 0.649 | – | 0.601 | 0.527 | 0.58 | 0.419 | – | 0.281 | 0.209 | 0.187 | 0.19 | 0.173 | 0.183 | 0.777 | 0.66 | 0.586 | – | 0.544 |
| NCI-H3122 | 0.978 | 0.678 | 0.204 | 0.361 | 0.518 | 0.189 | 0.158 | 0.125 | 0.112 | 0.101 | 0.767 | 0.512 | 0.13 | 0.144 | 0.146 | 0.416 | 0.383 | 0.315 | 0.279 | 0.268 |
| PC-3 [JPC-3] | 0.82 | 0.722 | 0.557 | – | 0.53 | 0.556 | 0.581 | 0.483 | – | 0.575 | 1.06 | 0.927 | 0.848 | 0.823 | 0.743 | 0.807 | 0.724 | 0.757 | – | 0.632 |
